Experimental data published in patent US6589580B1, “Method and apparatus for application of surface treatment to food products” (Kraft Foods Holdings, Inc., priority 1999, dated 2003).

Tested on: mold growth on cheese chunks
Assay: Mold growth on refrigerated cheese chunks exposed to ambient air after surface treatment
Method: In one particular embodiment, the material applied comprises a suspension of natamycin in an aqueous saline solution. […] In a preferred embodiment of the invention, the process applies an average surface concentration of about 1.0 to 1.1 μg/cm^2 to ensure that an adequate concentration is applied over substantially the entire exterior surface. Application of natamycian at these average surface concentrations with the apparatus of the invention ensures that substantially all of the cheese chunk surface area has a surface concentration of at least about 0.5 μg/cm^2.
The efficacy of an antimycotic agent may be measured in terms of the number of days during which mold growth is retarded in treated samples, relative to untreated control samples. Generally, if mold growth is retarded by 45 days or more, the antimycotic may be considered effective. The absolute length of time during which mold growth is delayed depends on the mold load in the ambient air, in addition to effects of antimycotic agents.

## C[C@@H]1C/C=C/C=C/C=C/C=C/[C@H](O[C@@H]2O[C@H](C)[C@@H](O)[C@H](N)[C@@H]2O)C[C@@H]2O[C@](O)(C[C@@H](O)C[C@H]3O[C@@H]3/C=C/C(=O)O1)C[C@H](O)[C@H]2C(=O)O [natamycin]
Preferred embodiment (average surface concentration about 1.0 to 1.1 μg/cm^2), refrigerated at 35° F. to 45° F., exposed to ambient air
  number of days by which mold growth is retarded (relative to untreated control samples): over 45 days
Preferred embodiment, in some cases, refrigerated at 35° F. to 45° F., exposed to ambient air
  time cheese chunks remained mold-free: over 200 days
Refrigerated cheese chunks exposed to ambient air for extended periods, natamycin suspension in aqueous saline solution applied by spray
  surface concentration level found effective in preventing mold growth: about 0.5 μg/cm^2
